Consider seven compounds from patent publication US7384961B2, “Saturated and unsaturated heteroarylcycloalkylmethyl amines as anti-depressants” (priority 2002, dated 2008).

Marks after values point to notes of the source that are not given here.

One data set concerns the target T1, NA re-uptake (Rattus norvegicus, UniProt Q63380).
T1 construct: synaptosomes are freshly isolated from rat brain areas; from tissue; host or cells: rat brain synaptosomes (P2 fraction), hypothalamus
Briefly: Inhibition of NA re-uptake in rat brain synaptosomes (P2 fraction, hypothalamus). The data set is classed as biochemical. The settings on record: 10 μmol/l. The text has this:
(§1) a) Investigations of the Inhibition of the Re-uptake of 5-HT and NA
(§2) In order to be able to carry out these in vitro studies, synaptosomes are freshly isolated from rat brain areas. […] These vesicular particles are isolated from the hypothalamus for the NA re-uptake and from the medulla +pons region of male rat brains for the 5-HT re-uptake.
(§3) The IC50 values were obtained with the aid of the “Figure P” computer program (version 6.0, Biosoft, Cambridge, England). […] The “Ligand” computer program (version 4, Biosoft, England) was used to obtain KD values.

The test system of data set [1] is mice. Briefly: Formalin test in mice (analgesic action, chronic pain component). The data set is classed as in vivo. To be noted: for ED50: Mus musculus, read-out: Inhibition of the nociceptive behaviour versus control, ED50 value. The method, then: b) Investigations of the Analgesic Actions in the Formalin Test in Mice
The formalin test (Dubuisson, D. and Dennis, S. G., 1977, Pain, 4, 161-174) represents a model of acute and chronic pain. The chronic pain component was evaluated in the investigations described here.
A biphase nociceptive reaction which is recorded by observing three behaviour patterns which can be clearly differentiated from one another is induced in freely mobile test animals by a single formalin injection into the dorsal side of a hind paw.
Formalin is administered subcutaneously into the dorsal side of the right hind paw of each animal in a volume of 20 μl and a concentration of 1%.
The specific changes in behaviour which differ from the normal behaviour (score 0), such as raising (score 1) and shaking the paw (score 2) and biting and licking reactions (score 3), are observed and recorded continuously at component intervals of 3 min for up to 60 min after the administration of formalin. The changes in behaviour are weighted in different ways (score 0-3) and a pain rate (PR) is calculated using the following formula: PR=[(T0×0)+(T1×1)+(T2×2)+(T3×3)]/180.
The group size is 10 animals (n=10).
On the basis of the PR calculations, the action of the substance was determined as the change from a control in percent. The ED50 was determined by means of regression analysis.

Data set [2] concerns mice. Briefly: Forced swimming test (Porsolt test) in mice. The class given is in vivo. To be noted: for Change in immobility phase versus control: 2.15 mg/kg i.p., mice. The method, then: c) Investigation of the Antidepressant Action in the Forced Swimming Test (Porsolt Test) in Mice
The investigations to determine the antidepressant action of the compounds of the formula I according to the invention were carried out in the forced swimming test (Porsolt test) in mice (Porsolt, R. et al., Arch. Int. Pharmacodyn. vol. 229, p. 327-336, (1977)). Male mice (20-25 g body weight) were placed individually for a period of 6 minutes in a shallow bowl of water from which they were unable to escape and were therefore forced to swim. After some time the animals gave up their swimming attempts and passed into an immobility phase. The duration of the immobility phase in the interval of 2-6 minutes after introduction of the animals was determined. The substance and vehicle groups each comprise 10 animals. Changes in the duration of the immobility phase are stated relative to the vehicle control. Differences versus the vehicle control are tested for significance with the aid of the Student's T test. Antidepressants induce a shortening of the immobility phase.

Data set [3] has as its system mice. Briefly: Isolation-induced pup vocalization test in mice. The class given is in vivo. To be noted: for ED50: sc, read-out: Change in vocalization frequency versus control, ED50 value. The method, then:
d) Investigation of the Anxiolytic Action in the Isolation-Induced Pup Vocalization Test in Mice
The isolation-induced pup vocalization test in mice was used to investigate anxiolytic actions (Fish, E. W., Sekinda, M., Ferrari, P. F., Dirks, A., Miczek, K. A., Psychopharmacology, vol. 149, p. 277-285, (2000)). Litters of 7 to 13 mice were used for the testing. At the age of 7 days the animals were separated from the mother and placed in an incubation cage with an internal temperature of approx. 34° C. For determination of the vocalizations in the ultrasonic range, the animals were placed individually on a temperature-controlled platform (23 cm×23 cm, divided by a grid into fields of 2 cm×2 cm, 19±1° C.) of a soundproofed test chamber for a duration of 30 sec. The ultrasonic vocalizations were recorded with a high-frequency capacitor microphone, filtered, amplified, digitalized and plotted and analysed using commercial software. Only animals with pre-values of at least 6 vocalizations within 30 sec and a body weight of 3.5 to 5.5 g were employed for the testing. After subcutaneous (s.c.) injection of substance or vehicle, the animals were returned to the incubation cage for a duration of 10 min and then placed individually again on the temperature-controlled plate of the test chamber for a duration of 4 min. In addition to the number of vocalizations, crossings of the grid of the plate and body turns of the mice were determined to investigate influences of the substance on locomotor activity and coordination. Changes in the vocalization frequencies, crossings of the grid and body turns were stated relative to the vehicle control. A reduction in the vocalization frequency is described for anxiolytics.

In a further data set the target is T2, 5-HT re-uptake (Rattus norvegicus, UniProt P31652).
T2 construct: synaptosomes are freshly isolated from rat brain areas; from tissue; host or cells: rat brain synaptosomes (P2 fraction), medulla + pons region, male rats
Briefly: Inhibition of 5-HT re-uptake in rat brain synaptosomes (P2 fraction, medulla + pons). To be noted: 10 μmol/l. The data set is classed as biochemical.
From the text: as §1, §2, §3

T1 sequence (Q63380 1-617): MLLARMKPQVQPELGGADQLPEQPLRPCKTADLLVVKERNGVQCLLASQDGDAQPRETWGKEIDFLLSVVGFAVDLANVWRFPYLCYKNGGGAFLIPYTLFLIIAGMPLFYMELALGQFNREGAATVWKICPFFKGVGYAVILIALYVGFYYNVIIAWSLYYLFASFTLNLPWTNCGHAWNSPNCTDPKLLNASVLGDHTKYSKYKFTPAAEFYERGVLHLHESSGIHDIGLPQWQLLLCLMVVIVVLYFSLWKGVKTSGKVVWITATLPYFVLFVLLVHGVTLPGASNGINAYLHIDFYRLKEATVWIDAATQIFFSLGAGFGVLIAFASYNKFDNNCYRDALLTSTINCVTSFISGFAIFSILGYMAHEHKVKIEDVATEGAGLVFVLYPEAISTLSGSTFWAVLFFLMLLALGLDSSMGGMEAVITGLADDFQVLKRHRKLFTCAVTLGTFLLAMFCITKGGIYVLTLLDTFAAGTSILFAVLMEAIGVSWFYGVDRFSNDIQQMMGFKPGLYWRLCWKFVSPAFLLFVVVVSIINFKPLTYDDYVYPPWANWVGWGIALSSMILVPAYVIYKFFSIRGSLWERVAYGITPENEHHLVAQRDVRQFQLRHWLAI
T2 sequence (P31652 whole entry): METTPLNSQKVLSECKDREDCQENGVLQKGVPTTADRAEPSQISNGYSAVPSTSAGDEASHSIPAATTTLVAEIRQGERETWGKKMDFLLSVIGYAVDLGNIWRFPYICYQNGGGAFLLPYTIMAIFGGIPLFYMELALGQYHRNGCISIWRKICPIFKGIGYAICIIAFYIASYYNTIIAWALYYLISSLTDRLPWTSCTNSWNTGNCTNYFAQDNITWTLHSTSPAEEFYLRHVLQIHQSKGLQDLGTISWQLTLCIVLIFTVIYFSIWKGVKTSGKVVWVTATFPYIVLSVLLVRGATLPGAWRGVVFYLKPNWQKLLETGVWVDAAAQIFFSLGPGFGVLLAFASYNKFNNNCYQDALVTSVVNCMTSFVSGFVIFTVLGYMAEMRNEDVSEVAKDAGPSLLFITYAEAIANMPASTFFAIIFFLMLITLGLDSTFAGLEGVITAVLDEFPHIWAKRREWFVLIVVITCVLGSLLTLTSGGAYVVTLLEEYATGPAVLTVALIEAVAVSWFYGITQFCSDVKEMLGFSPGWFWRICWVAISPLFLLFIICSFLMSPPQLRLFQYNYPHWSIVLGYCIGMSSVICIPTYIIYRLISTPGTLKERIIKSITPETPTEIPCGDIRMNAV

Broadly, the inhibition is the change of the read-out against control, counted positive when it falls. Take `COc1ccc(C(CN(C)C)C2(O)CCCCC2)cc1` (stereo not shown) [venlafaxine, reference compound]: the inhibition at 10 µM at NA re-uptake turned out to be 92%. The ED50 in the data set with mice [1] (iv) was found to be 2.6 mg/kg. For the same compound, the “Change in immobility phase versus control” value in the data set with mice [2] is reported as −66%***. For the same compound, the ED50 with mice [3] (Mus musculus) is 8.1 mg/kg. Also, in the data set on mice [3] (dose range 0.3-56 mg/kg s.c.), the “Change in body turns, maximum change” value was “+141% (n.s.)” and the “Change in grid crossings, maximum change” value is listed as “+92% (n.s.)”.
`CN(C)CC1=C(c2cccnc2)CCCC1.Cl.Cl` [Example 1, Dimethyl-(2-pyridin-3-yl-cyclohex-1-enylmethyl)amine dihydrochloride]: the inhibition at 10 µM on 5-HT re-uptake came out at 83%; at NA re-uptake, 35%. Moreover, the ED50 turned out to be 1.66 mg/kg in the data set on mice [1] (iv) and 1.7 mg/kg in the data set with mice [3] (mouse pups). Moreover, the “Inhibition of the nociceptive behaviour (in words)” value in the data set on mice [1] (formalin test in mice) was “dose-dependent inhibition of the nociceptive behaviour”. Also, the “Change in immobility phase versus control” value in the data set on mice [2] is −54%***. The “Shortening of the immobility phase (in words)” value with mice [2] (forced swimming test in mice) was “significant shortening of the immobility phase”. Further, the “Change in body turns, maximum change” value with mice [3] (dose range 1.0-17 mg/kg s.c.) is reported as “+233% (n.s.)”. The “Change in grid crossings, maximum change” value in the data set with mice [3] (dose range 1.0-17 mg/kg s.c.) is “+32% (n.s.)”. The “Changes in the crossings of the grid and body turns (in words)” value with mice [3] (locomotion and coordination) was “no significant changes in the crossings of the grid and body turns”. In addition, the “Reduction in the vocalization frequency (in words)” value in the data set on mice [3] (pup vocalization test) is “significant reduction in the vocalization frequency”.
As for `CN(C)CCCC1(c2ccc(F)cc2)OCc2cc(C#N)ccc21` (stereo not shown) [Citalopram, citalopram], in the data set on mice [3] (dose range 0.56-10 mg/kg s.c.), the “Change in body turns, maximum change” value is recorded as “+397% (s.)” and the “Change in grid crossings, maximum change” value is “+66% (n.s.)”. Also, the ED50 in the data set on mice [3] (mouse pups) was found to be 1.2 mg/kg.
`CN(C)CC1=C(c2cccnc2)CCCCCC1.Cl` [Example 32, Dimethyl-(2-pyridin-3-yl-cyclooct-1-enylmethyl)-amine hydrochloride]: the values for the inhibition at 10 µM on 5-HT re-uptake and on NA re-uptake were 78% and 55%, respectively. For the same compound, the ED50 with mice [1] (iv, mice, formalin test) was found to be 2.77 mg/kg.
In the case of `CNCC[C@H](Oc1cccc2ccccc12)c1cccs1` [duloxetine, reference compound], in the data set on mice [1] (ip), the ED50 is 6.69 mg/kg. In addition, the “Change in immobility phase versus control” value in the data set on mice [2] is given as −41%**.
Consider `CN(C)CC1CCCCC=C1c1cccnc1.Cl` (stereo not shown) [Example 24, Dimethyl-(2-pyridin-3-yl-cyclohept-2-enylmethyl)-amine hydrochloride], for which the inhibition at 10 µM on 5-HT re-uptake stood at 67%; on NA re-uptake it was 19%. Besides, in the data set with mice [1] (iv), the ED50 was 5.4 mg/kg.
For the compound `CN(C)CC1CCCC1c1cccnc1.Cl` (stereo not shown) [Example 31, Dimethyl-(2-pyridin-3-yl-cyclopentylmethyl)-amine hydrochloride], the values for the inhibition at 10 µM at 5-HT re-uptake and on NA re-uptake were 70% and 8%, respectively. In addition, the “Inhibition of the nociceptive behaviour versus control; % inhibition” value in the data set on mice [1] (10 mg/kg i.v., mice) is reported as 89.7%.
